Laboratory results as given in publication PMC4719581, “Tankyrase inhibition impairs directional migration and invasion of lung cancer cells by affecting microtubule dynamics and polarity signals” (BMC Biology, 2016).

Biological target: T1, TNKS2 (tankyrase 2) (Homo sapiens, UniProt Q9H2K2)
T1 construct: recombinant His-tagged human TNKS2 poly(adenosine diphosphate)-ribose polymerase (PARP) domain, baculovirus-expressed
T1 sequence (Q9H2K2 946-1162 limits assumed): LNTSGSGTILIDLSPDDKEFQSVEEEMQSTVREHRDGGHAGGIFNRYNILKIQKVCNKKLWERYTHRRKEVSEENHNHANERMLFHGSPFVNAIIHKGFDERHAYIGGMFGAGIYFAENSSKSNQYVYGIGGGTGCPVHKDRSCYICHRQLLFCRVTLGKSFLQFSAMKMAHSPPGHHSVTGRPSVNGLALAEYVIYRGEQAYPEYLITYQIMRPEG
Test: auto-PARsylation assay with purified PARP domain on Ni2+-coated Flashplate, radioactive scintillation readout
Assay type: biochemical

CCc1cc2ccc(C(C)(C#N)Cc3cccc(C#N)c3)cc2[nH]c1=O (single isomer, unassigned) [JNJ-BJ, (R or S)-3-[2-cyano-2-(3-ethyl-2-oxo-1H-quinolin-7-yl)propyl]benzonitrile]
IC50: 130 nM
